From ChEMBL document CHEMBL1201862, “PubChem BioAssay data set” (2004)
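Growth conditions: 96-well plates. Treatment: test compound, 48 hours, 5 concentrations. Analysis: linear interpolation between bracketing concentrations; unreached endpoints set to highest concentration. Abbreviation: GI50, concentration required for 50% inhibition of growth.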 Calls of active or inactive are those of the source. Rule as the data show it: active = GI50 up to about 1.1 µM and inactive = higher. Square brackets hold non-standard residues; d marks the D form. Peptide text beside a SMILES is read from it. * marks the point of attachment. Bn2Val = CC(C)[C@@H](C(=O)*)N(Cc1ccccc1)Cc1ccccc1; NH(3,4-diMeO-benzyl) = COc1ccc(CN*)cc1OC; NMeV = CN[C@H](C(=O)O)C(C)C; dNMeA = CN[C@H](C)C(=O)O

How the values were obtained:
Experiment in all cases: growth of human tumour cells (NCI), 48 h
ACHN = test system: ACHN
SF-295 = test system: SF-295
OVCAR-8 = test system: OVCAR-8
SNB-19 = test system: SNB-19
SK-MEL-2 = test system: SK-MEL-2
SK-MEL-5 = test system: SK-MEL-5
HCT-15 = test system: HCT-15
KM12 = test system: KM12
HOP-62 = test system: HOP-62
U-251 = test system: U-251
K562 = test system: K562
COLO 205 = test system: COLO 205
A549 = test system: A549
HT-29 = test system: HT-29
SNB-75 = test system: SNB-75
M19-MEL = test system: M19-MEL
CAKI-1 = test system: CAKI-1
MDA-MB-435 = test system: MDA-MB-435
Hs-578T = test system: Hs-578T
MDA-MB-231 = test system: MDA-MB-231

SMILES	GI50 (ACHN)	GI50 (SF-295)	GI50 (OVCAR-8)	GI50 (SNB-19)	GI50 (SK-MEL-2)	GI50 (SK-MEL-5)	GI50 (HCT-15)	GI50 (KM12)	GI50 (HOP-62)	GI50 (U-251)	GI50 (K562)	GI50 (COLO 205)	GI50 (A549)	GI50 (HT-29)	GI50 (SNB-75)	GI50 (M19-MEL)	GI50 (CAKI-1)	GI50 (MDA-MB-435)	GI50 (Hs-578T)	GI50 (MDA-MB-231)
Cc1ccccc1NC(=O)c1cc2cc(/N=N/c3ccccc3C(=O)O)ccc2oc1=O	33.3 µM (inactive)	18.5 µM (inactive)	29.6 µM (inactive)	> 10 µM (inactive)	22.8 µM (inactive)	14.5 µM (inactive)	10.6 µM	12.6 µM (inactive)	21.4 µM (inactive)	21.4 µM (inactive)	23.6 µM (inactive)	12.9 µM (inactive)	33.4 µM (inactive)	15.2 µM (inactive)	11.5 µM (inactive)	9.38 µM (inactive)	–	–	–	–
CCCCOC(=O)NC(=O)c1cn(C2CCCCC2)c(=O)[nH]c1=O	32.2 µM (inactive)	54.3 µM (inactive)	42.9 µM (inactive)	26.5 µM (inactive)	38 µM (inactive)	–	> 100 µM	86.1 µM (inactive)	25.3 µM (inactive)	28.4 µM (inactive)	> 100 µM (inactive)	> 100 µM (inactive)	38.5 µM (inactive)	59.4 µM (inactive)	–	71.4 µM (inactive)	> 10 µM (inactive)	–	–	–
COc1ccccc1-n1c(N)c2c(C)c(-c3ccccc3)[nH]c2nc1=S	> 100 µM (inactive)	–	> 100 µM (inactive)	> 100 µM (inactive)	> 100 µM (inactive)	4.76 µM (inactive)	> 100 µM	> 100 µM (inactive)	> 100 µM (inactive)	54.3 µM (inactive)	> 100 µM (inactive)	> 100 µM (inactive)	5.74 µM (inactive)	–	59.3 µM (inactive)	> 100 µM (inactive)	> 100 µM (inactive)	–	–	–
CCOC(OC1=C(C#N)CCCC1)C(C)[Se]c1ccccc1 (centres undefined)	44.5 µM (inactive)	33.3 µM (inactive)	24.3 µM (inactive)	54.5 µM (inactive)	> 100 µM (inactive)	20.6 µM (inactive)	36.8 µM	> 100 µM (inactive)	78.3 µM (inactive)	13.4 µM (inactive)	62.1 µM (inactive)	39.7 µM (inactive)	84.3 µM (inactive)	52.6 µM (inactive)	36.9 µM (inactive)	29.2 µM (inactive)	65.2 µM (inactive)	–	–	–
Cc1ccc(S(=O)(=O)OCC23CCC(CC2)C2CC23)cc1 (centres undefined)	61.7 µM (inactive)	35.1 µM (inactive)	59.3 µM (inactive)	96.6 µM (inactive)	–	24 µM (inactive)	47.6 µM	–	48.3 µM (inactive)	50.9 µM (inactive)	39.6 µM (inactive)	61.8 µM (inactive)	57.4 µM (inactive)	31.5 µM (inactive)	3.62 µM (inactive)	43.2 µM (inactive)	49.8 µM (inactive)	–	–	–
CN(C)CCC(/C=C/c1ccccc1)=N\Nc1ccc(Cl)cc1	2.23 µM (inactive)	3.99 µM (inactive)	2.98 µM (inactive)	11 µM (inactive)	2 µM (inactive)	14.7 µM (inactive)	3.01 µM	2.84 µM (inactive)	1.8 µM (inactive)	1.84 µM (inactive)	2.21 µM (inactive)	4.31 µM (inactive)	2.52 µM (inactive)	3.86 µM (inactive)	4.31 µM (inactive)	6.78 µM (inactive)	–	–	–	–
Oc1ccc(-c2c3ccccc3c(-c3ccc(OCCBr)cc3)c3ccccc23)cc1	29.1 µM (inactive)	16 µM (inactive)	22 µM (inactive)	29.4 µM (inactive)	22.2 µM (inactive)	19.1 µM (inactive)	30.7 µM	29.4 µM (inactive)	24 µM (inactive)	32.3 µM (inactive)	42.1 µM (inactive)	31.2 µM (inactive)	28.4 µM (inactive)	19.6 µM (inactive)	25.1 µM (inactive)	–	27.4 µM (inactive)	21.7 µM (inactive)	24.3 µM (inactive)	23.6 µM (inactive)
Cc1ccc(NC(=O)CC2C(=O)Nc3ccccc3[S+]2[O-])c(C)c1 (centres undefined)	21 µM (inactive)	12.8 µM (inactive)	16.9 µM (inactive)	11.7 µM (inactive)	9.35 µM (inactive)	4.11 µM (inactive)	4.94 µM	4.6 µM (inactive)	16.4 µM (inactive)	10.8 µM (inactive)	4.03 µM (inactive)	7.52 µM (inactive)	16.1 µM (inactive)	4.35 µM (inactive)	11.7 µM (inactive)	13.1 µM (inactive)	11 µM (inactive)	–	–	–
CNc1nnnn1C1OC(CO)C(O)C1O (centres undefined)	> 100 µM (inactive)	> 100 µM (inactive)	> 100 µM (inactive)	–	> 100 µM (inactive)	> 100 µM (inactive)	> 100 µM	> 100 µM (inactive)	> 100 µM (inactive)	> 100 µM (inactive)	> 100 µM (inactive)	> 100 µM (inactive)	> 100 µM (inactive)	> 100 µM (inactive)	> 100 µM (inactive)	> 100 µM (inactive)	> 100 µM (inactive)	–	–	–
N#Cc1c2c(c(N=[N+]=[N-])n3c1nc1ccccc13)CCCC2	2.16 µM (inactive)	2.05 µM (inactive)	1.69 µM (inactive)	2.55 µM (inactive)	1.73 µM (inactive)	18.3 µM (inactive)	2.07 µM	2.29 µM (inactive)	16.2 µM (inactive)	3.39 µM (inactive)	2.16 µM (inactive)	3.27 µM (inactive)	4.67 µM (inactive)	1.98 µM (inactive)	1.97 µM (inactive)	1.75 µM (inactive)	2.72 µM (inactive)	–	–	–
Cc1nc2c(n1Cc1ccc(Cl)cc1)C(=O)c1ccccc1C2=O	27 µM (inactive)	11 µM (inactive)	8.99 µM (inactive)	> 75 µM (inactive)	> 75 µM (inactive)	16.4 µM (inactive)	1.07 µM	> 75 µM (inactive)	20.8 µM (inactive)	3.48 µM (inactive)	2.06 µM (inactive)	> 75 µM (inactive)	17.4 µM (inactive)	4.08 µM (inactive)	19.9 µM (inactive)	11.7 µM (inactive)	–	–	–	–
CCN(CC)C(=O)CC12CCCCC1=Nc1ccccc12 (centres undefined)	> 100 µM (inactive)	> 100 µM (inactive)	> 100 µM (inactive)	–	> 100 µM (inactive)	> 100 µM (inactive)	> 100 µM	> 100 µM (inactive)	> 100 µM (inactive)	> 100 µM (inactive)	> 100 µM (inactive)	> 100 µM (inactive)	> 100 µM (inactive)	> 100 µM (inactive)	> 100 µM (inactive)	> 100 µM (inactive)	> 100 µM (inactive)	–	–	–
Cn1ccnc1Cn1cc(-c2cccc(-c3cn[nH]c3)c2)cn1	28.1 µM (inactive)	> 100 µM (inactive)	> 100 µM (inactive)	> 100 µM (inactive)	> 100 µM (inactive)	> 100 µM (inactive)	79.3 µM	> 100 µM (inactive)	> 100 µM (inactive)	84.5 µM (inactive)	55 µM (inactive)	> 100 µM (inactive)	39.6 µM (inactive)	–	23.2 µM (inactive)	> 100 µM (inactive)	15.2 µM (inactive)	–	–	–
COc1ccc(CCN2COc3ccc4ccc(=O)oc4c3C2)cc1OC	> 100 µM (inactive)	> 100 µM (inactive)	> 100 µM (inactive)	> 100 µM (inactive)	> 100 µM (inactive)	58.1 µM (inactive)	> 100 µM	> 100 µM (inactive)	> 100 µM (inactive)	88.9 µM (inactive)	50.4 µM (inactive)	> 100 µM (inactive)	> 100 µM (inactive)	78.5 µM (inactive)	> 100 µM (inactive)	–	> 100 µM (inactive)	> 100 µM (inactive)	> 100 µM (inactive)	> 100 µM (inactive)
COC(=O)C1C=CCON2CCc3c(n(C)c4ccccc34)C12 (centres undefined)	> 100 µM (inactive)	> 100 µM (inactive)	–	> 100 µM (inactive)	> 100 µM (inactive)	> 100 µM (inactive)	> 100 µM	> 100 µM (inactive)	> 100 µM (inactive)	> 100 µM (inactive)	> 100 µM (inactive)	> 100 µM (inactive)	> 100 µM (inactive)	> 100 µM (inactive)	88.1 µM (inactive)	> 100 µM (inactive)	> 100 µM (inactive)	–	–	–
COc1ccc(CNC(=O)[C@@H](C)N(C)C(=O)[C@@H]2CCCN2C(=O)[C@H](C(C)C)N(C)C(=O)[C@@H](NC(=O)[C@H](C(C)C)N(Cc2ccccc2)Cc2ccccc2)C(C)C)cc1OC (Bn2Val-V[NMeV]P[dNMeA]-{NH(3,4-diMeO-benzyl)})	6.97 µM (inactive)	6.28 µM (inactive)	14.1 µM (inactive)	7.48 µM (inactive)	7.4 µM (inactive)	5.87 µM (inactive)	7.18 µM	10.4 µM (inactive)	8 µM (inactive)	7.6 µM (inactive)	10.8 µM (inactive)	6.55 µM (inactive)	5.85 µM (inactive)	5.4 µM (inactive)	6.43 µM (inactive)	–	11.4 µM (inactive)	8.63 µM (inactive)	1.36 µM (inactive)	8.15 µM (inactive)
C[C@@H]1CC[C@@]2(C)[C@H](C)/C(=C\COC(=O)/C=C/c3ccc(O)c(O)c3)CC[C@@]12C [NAVICULYL CAFFEATE]	4.19 µM (inactive)	8.87 µM (inactive)	9.42 µM (inactive)	11.5 µM (inactive)	12.6 µM (inactive)	5.15 µM (inactive)	4.1 µM	3.95 µM (inactive)	13.1 µM (inactive)	5.35 µM (inactive)	4.99 µM (inactive)	3.61 µM (inactive)	7.62 µM (inactive)	3.94 µM (inactive)	11.9 µM (inactive)	–	4.58 µM (inactive)	3.33 µM (inactive)	13.2 µM (inactive)	7.83 µM (inactive)
